{"source": "paper PMC4259414", "about": "“HS-133, a novel fluorescent phosphatidylinositol 3-kinase inhibitor as a potential imaging and anticancer agent for targeted therapy” (Oncotarget, 2014)", "key": {"[1]": {"test_system": "SkBr3 cells", "assay": "apoptosis: Western blotting and TUNEL assay", "type": "cell-based, human", "source_text": "Since PI3K and its downstream effectors appear to mediate anti-apoptotic signals, we examined the effect of HS-133 on apoptosis. […] We also observed that the levels of Bax, pro-apoptotic protein, were increased by HS-133 treatment in a dose-dependent manner. Furthermore, induction of apoptosis by HS-133 was confirmed by visualizing the fragmented DNA with TUNEL staining (Fig. 5B).\n(§1) The cells were washed three times with ice-cold PBS before lysis, and were lysed with a buffer containing 1% Triton X-100, 1% Nonidet P-40 (NP-40), as well as protease and phosphatase inhibitor cocktails (GenDEPOT, Barker, TX). Equal amounts of protein were separated by 10% sodium dodecyl sulfate-polyacrylamide gel electrophoresis (SDS-PAGE) and transferred onto the polyvinylidene fluoride (PVDF) membranes (Millipore, Bedford, MA). Immunostaining was performed by incubating the blots with primary antibodies, followed by horseradish peroxidase (HRP)-conjugated secondary antibody and detected with an enhanced chemiluminescence (ECL) plus system (Amersham Biosciences, Piscataway, NJ). […]\nThe SkBr3 cells were plated on 18-mm cover glasses in DMEM medium and incubated for 24 h so that approximately 70% confluence was reached. […] The stained cells were examined for a fluorescence of nuclear fragmentation. […]"}, "[2]": {"test_system": "HUVECs", "assay": "tube formation assay", "type": "cell-based, human", "settings": "20 h", "protocol": "To examine the effect of HS-133 on angiogenesis, a capillary tube formation assay using human umbilical vein endothelial cells (HUVECs) was performed. […] Cell migration is critical for the endothelial cells to form blood vessels during angiogenesis, and is necessary for tumor growth and metastasis. Thus, we conducted a wound migration assay to study the effect of HS-133 on cell migration. […] Considering that endothelial migration and tube formation have all highly relevant properties of angiogenesis, our results illustrated that HS-133 has the ability to block angiogenesis.\nA 10 mg/ml (200 μl) of Matrigel (BD Biosciences) was polymerized for 30 min at 37°C. HUVECs were suspended in M199 (2% FBS) medium containing VEGF (50 ng/ml) at a density of 2.5 × 10^5 cells/ml, and 0.2 ml of cell suspension was added to each well coated with Matrigel, together with or without the indicated concentrations of HS-133 for 20 h. The morphological changes of the cells and tubes formed were observed under a phase-contrast microscope and photographed at 200× and 400× magnification."}, "[3]": {"test_system": "PI3K/Akt pathway in SkBr3 cells", "assay": "Western blotting of PI3K/Akt signaling in SkBr3 cells", "type": "cell-based, human", "settings": "SkBr3, 1–50 μM, 6 h", "protocol": "It has been shown that breast tumor cell growth is closely related to the activation of the PI3K/Akt pathway. […] Therefore, we evaluated the effects of HS-133 on the PI3K/Akt pathway in breast cancer cells. The PI3K inhibitory activity of HS-133 was assessed in the SkBr3 cells.\nas §1, with “NJ). The primary mouse antibodies against the following factors were used: p27 (Cell Signaling Technologies, Danvers, MA), cyclin D1, hypoxia-inducible factor-1α (HIF-1α, BD Biosciences, SanJose, CA), VEGF (Novus Biologicals, Littleton, CO) and β-actin (Abcam, Cambridge, MA).” for “NJ).”"}, "[4]": {"test_system": "HIF-1α and VEGF in SkBr3 cells", "assay": "hypoxia-induced HIF-1α and VEGF, Western blotting and ELISA", "type": "cell-based, human", "protocol": "Since HIF-1α is the major regulator of cellular adaptive responses to hypoxia, we examined the effect of HS-133 on the expression of the HIF-1α in SkBr3 cells. The cells were treated with various concentrations of HS-133 (1–50 μM) under hypoxic mimicking conditions induced by a treatment with 100 μM CoCl2 for 16 h. […] To further determine the effect of HS-133 on hypoxia-induced VEGF, an immediate downstream target gene of HIF-1α, the protein and production of VEGF were measured by western blotting and ELISA in the SkBr3 cells.\nas §1\nThe amount of VEGF secreted into the media was measured by sandwich ELISA. […] The absorbance at 450 nm was measured with a 96-well plate reader."}, "[5]": {"assay": "tissue distribution, tissue-to-plasma ratio", "type": "in vivo, BALB/c nude mice bearing SkBr3 xenograft", "settings": "BALB/c nude, mouse, PO 10 mg/kg, 30 min post-dose", "source_text": "Various tissue concentrations, such as the heart, lung, liver, kidney, spleen, brain, and tumor in BALB/c nude mice bearing SkBr3 xenograft are shown in Fig. 9B. The ratios of each tissue-to-plasma (KP value) were 3.26, 4.18, 0.11, 1.99, 3.07, 4.99, and 2.06 for the heart, lung, liver, kidney, spleen, brain, and tumor, respectively. […] Thus, this high concentration level of HS-133 in tumor tissues may be contributed to in vivo efficacy in the SkBr3 xenograft model.\nThe heart, lung, liver, kidney, brain, spleen, and tumor were collected at 30 min post-dose from 3 different animals at each time point, rinsed with ice-cold saline, weighed and stored at −80°C until analysis. For HS-133 quantification, mouse tissues were homogenized with three times the volume of PBS. The homogenates were extracted by protein precipitation with acetonitrile. LC-MS/MS analysis was conducted as described for the plasma. The homogenate concentrations were converted to tissue concentrations for the calculations of each tissue-to-plasma ratio."}}, "note": "Read-outs that look alike come from different tables or passages of the source.", "data": [{"smiles": "CC(=O)Nc1ccc(-c2nc3c(c(=O)n(C)c(=O)n3C)n2-c2cccc(F)c2)cc1", "note": "[HS-133, N-(4-(7-(3-Fluorophenyl)-1,3-dimethyl-2,6-dioxo-2,3,6,7-tetrahydro-1H-purin-8-yl)phenyl) acetamide]", "values": [{"measurement": "induction of apoptosis (cleavage of PARP and caspases, Bax, TUNEL)", "setting": "[1]", "result": "could induce apoptosis"}, {"measurement": "capillary tube formation", "setting": "[2]", "result": "inhibited the formation of vessel-like structures"}, {"measurement": "phosphorylation of Akt, mTOR, p70S6K and 4E-BP1", "setting": "[3]", "result": "effectively suppressed"}, {"measurement": "hypoxia-induced HIF-1α expression", "setting": "[4]; SkBr3, 1–50 μM, 100 μM CoCl2, 16 h", "result": "inhibited the hypoxia-induced HIF-1α expression"}, {"measurement": "hypoxia-induced VEGF expression and production", "setting": "[4]; SkBr3, CoCl2, Western blotting and ELISA", "result": "suppress the VEGF expression and production in a dose-dependent manner"}, {"measurement": "Kp at 0.5 h", "setting": "[5]; brain, read-out: tissue-to-plasma ratio (KP value), brain", "result": 4.99}, {"measurement": "Kp at 0.5 h", "setting": "[5]; heart, read-out: tissue-to-plasma ratio (KP value), heart", "result": 3.26}, {"measurement": "Kp at 0.5 h", "setting": "[5]; kidney, read-out: tissue-to-plasma ratio (KP value), kidney", "result": 1.99}, {"measurement": "Kp at 0.5 h", "setting": "[5]; liver, read-out: tissue-to-plasma ratio (KP value), liver", "result": 0.11}, {"measurement": "Kp at 0.5 h", "setting": "[5]; lung, read-out: tissue-to-plasma ratio (KP value), lung", "result": 4.18}, {"measurement": "Kp at 0.5 h", "setting": "[5]; spleen, read-out: tissue-to-plasma ratio (KP value), spleen", "result": 3.07}, {"measurement": "Kp at 0.5 h", "setting": "[5]; tumor, read-out: tissue-to-plasma ratio (KP value), tumor", "result": 2.06}]}]}
